Reference: PubChem BioAssay (NCI)
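Five compound concentrations were applied to cells in 96-well plates for 48 hours; endpoints were derived by simple linear interpolation of the resulting dose-response curve. The concentration for 50% growth inhibition is given as GI50. Definition used: TGI = concentration required for complete inhibition of growth.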

Tests used:
Assay in all cases: growth of human tumour cells (NCI), 48 h
[1] = test system: UACC-62 melanoma
[2] = test system: HCC-2998 colon
[3] = test system: A498 renal
[4] = test system: HOP-92 NSCLC
[5] = test system: SK-MEL-2 melanoma
[6] = test system: HL-60(TB) leukemia
[7] = test system: NCI-H460 lung
[8] = test system: RPMI-8226 leukemia
[9] = test system: HS 578T breast
[10] = test system: PC-3 prostate

Structure (SMILES) | TGI [1] | TGI [2] | TGI [3] | TGI [4] | TGI [5] | TGI [6] | TGI [7] | TGI [8] | GI50 [9] | TGI [9] | GI50 [1] | GI50 [2] | GI50 [10] | TGI [10] | GI50 [4] | GI50 [5] | GI50 [6] | GI50 [7] | GI50 [8] | GI50 [3]
CCOC(=O)C(C(O)c1ccc([N+](=O)[O-])cc1)P(=O)(OCC)OCC (configuration not stated) | > 100 µM | > 100 µM | > 100 µM | 99.5 µM | > 100 µM | 64 µM | > 100 µM | > 100 µM |  |  |  |  |  |  |  |  |  |  |  | 
COC[C@H](C)N=CN1CCc2ccccc2C1(Cc1ccccc1)Cc1ccccc1 | > 100 µM |  |  | 29.8 µM | 23.6 µM |  | 25.9 µM | 38.9 µM |  |  |  |  |  |  |  |  |  |  |  | 
[CH3][Sn]([CH3])([CH3])[O][N+](=O)[O-] | > 10 µM | > 10 µM |  | > 10 µM | > 10 µM | > 10 µM | > 10 µM | > 10 µM | 1.73 µM | > 10 µM | 3.91 µM | > 10 µM | > 10 µM | > 10 µM | 3.39 µM | 5.1 µM | 4.03 µM | 8.25 µM | 4.98 µM | 
CN1CCN(Cc2cc(NC(=O)c3cccc(C#Cc4cccc5[nH]nc(N)c45)c3)cc(C(F)(F)F)c2)CC1 | 3.22 µM | 3.66 µM | 2.22 µM | 2.63 µM | 3.4 µM | 4.42 µM | 3.06 µM | 4.62 µM |  |  | 1.69 µM | 1.99 µM | 1.81 µM | 3.52 µM | 1.24 µM | 1.72 µM | 1.89 µM | 1.67 µM | 2.12 µM | 1.01 µM
CCN=C(C#N)NCC | > 100 µM | > 100 µM | > 100 µM | > 100 µM | > 100 µM | > 100 µM | > 100 µM | > 100 µM |  |  |  |  |  |  |  |  |  |  |  | 
Cc1ccc(NC(=O)OCC(COc2ccc(Cl)cc2Cl)OC(=O)Nc2ccc(C)cc2)cc1 (configuration not stated) | > 100 µM | > 100 µM | > 100 µM | > 100 µM | > 100 µM |  | > 100 µM | > 100 µM |  |  |  |  |  |  |  |  |  |  |  | 
CCOC(=O)C(=O)Nc1ccccc1C(C)C | > 100 µM | > 100 µM | > 100 µM | > 100 µM | > 100 µM | > 100 µM | > 100 µM | > 100 µM |  |  |  |  |  |  |  |  |  |  |  | 
O=C(/C=C/OC(=O)c1cccc(Cl)c1)c1ccc(Cl)cc1 | > 100 µM | > 100 µM | 96.9 µM | > 100 µM | > 100 µM |  | > 100 µM | > 100 µM | 23.2 µM | > 70.4 µM | > 80.8 µM | 29.3 µM | 30.7 µM | > 95.9 µM | 33.5 µM | > 73.1 µM |  | > 100 µM | 30.5 µM | > 40.3 µM
CCOC1CC2OC(=O)C1C=C2C(=O)OC (configuration not stated) | > 100 µM | > 100 µM | > 100 µM | 73.1 µM | 65.7 µM | 46.8 µM | > 100 µM | 53.9 µM |  |  |  |  |  |  |  |  |  |  |  | 
O=C(O)Cc1cccc2c(=O)c3cccc([N+](=O)[O-])c3oc12 | > 100 µM | > 100 µM | > 100 µM |  | > 100 µM | > 100 µM | > 100 µM | > 100 µM |  | > 100 µM |  |  |  | > 100 µM |  |  |  |  |  | 
